Patent US20250154150A1, “SUBSTITUTED FUSED RING COMPOUND, PHARMACEUTICAL COMPOSITION THEREOF, PREPARATION METHOD THEREFOR AND USES THEREOF” (SUZHOU YABAO PHARMACEUTICAL R&D CO., LTD., priority 2022, published 2025)
pIC50: −log10 of the molar value.

Legend:
[1] = target: LRRK2 G2019S (Homo sapiens (Human), UniProt Q5S007, G2019S); test: Kinase inhibition assay (ADP-Glo, LRRKtide substrate); format: biochemical; conditions: LRRK2 G2019S protein, room temperature
Procedure: Kinase LRRK2 G2019S protein was derived from Carna, LRRKtide was derived from Signalchem, ATP was derived from Promega, and DMSO was derived from Sigma.
All assays were performed at room temperature. The test compounds were dissolved and diluted, and then added to a 384-well plate. 2.5 μL of 2× kinase reaction buffer was added, and the mixture was centrifuged. 2.5 μL of a mixture of 2× substrate and ATP was added, and the mixture was centrifuged. 4 μL of ADP-Glo reagent was added, and the mixture was incubated at room temperature for 40 min. 8 μL of […] was added, and the mixture was incubated at room temperature for 40 min. Then, the data were read using the Envision 2104 multi-label Reader.

[2] = target: LRRK2-R1441C (Homo sapiens (Human), UniProt Q5S007, R1441C); test: HEK293 cell kinase inhibition assay (NanoBRET); format: cell-based; conditions: HEK293 cells
Procedure: (§1) HEK293 cells were cultured, and collected by adding trypsin. Culture medium was added, and the cell density was adjusted to 2×10^5/mL. Liposome-DNA complexes were constructed and mixed with HEK293 cells at a ratio of 1:20. The mixture was added to a 384-well plate, and incubated at 37° C. for 20-30 h. A mixed solution of enzyme substrate and the test compound was added, and the mixture was incubated at room temperature for 2-3 min. NanoBRET reagent (Promega) was added, and bioluminescence was measured within 10 min using the microplate reader (Envision 2104) at 450 nm for the donor luciferase protein (donor) and 610 nm for the acceptor fluorescent group (acceptor). The BRET ratio for the test compounds was calculated using the following formula, including a background correction option.
(§2) [formula] • Acceptorsample: 610 nm fluorescence with the test compound; • Donorsample: 450 nm fluorescence with the test compound; • Acceptorno-tracer control: 610 nm fluorescence of background (without the test compound); • Donorno-tracer control: 450 nm fluorescence of background (without the test compound)
(§3) The inhibitory activity of the test compounds on cellular LRRK2 enzyme was calculated by the following formula: […]
(§4) The IC50 values of the test compounds against cellular LRRK2 enzyme were calculated using Graphpad software. Non-linear regression fitting (dose-effect−variable slope method) was performed on the percentage inhibition rate versus logarithmic concentration curve of the compounds.
(§5) [formula] • X: logarithmic inhibitor concentration; Y: percentage inhibition rate; Bottom: a minimum value; Top: a maximum value; Hill Slope: hill slope

[3] = target: LRRK2 (Homo sapiens (Human), UniProt Q5S007); test: HEK293 cell kinase inhibition assay (NanoBRET); format: cell-based; conditions: HEK293 cells
Procedure: as §1, §2, §3, §4, §5

[4] = target: LRRK2-2019S (Homo sapiens (Human), UniProt Q5S007, G2019S); test: HEK293 cell kinase inhibition assay (NanoBRET); format: cell-based; conditions: HEK293 cells
Procedure: as §1, §2, §3, §4, §5

[5] = tested on: LRRK2; test: In vivo efficacy, oral administration: LRRK2 phosphorylation (pS935-LRRK2/LRRK2) in brain tissue by Western blot; set-up: species or system LRRK2-G2019S mice
Description: 1. Objective: The study aims to determine the in vivo efficacy of compound 527 by observing the inhibition effect of compound 527 on the phosphorylation level of LRRK2 in the brains of G2019S mutant LRRK2 gene knock-in mice following oral administration.
(1) Animals: B6.Cg-Tg(Lrrk2*G2019S)2Yue/J transgenic mice were purchased from Jackson Laboratory. The mice were bred with C57BL/6J mice to produce LRRK2 heterozygote mice carrying the G2019S mutation (LRRK2-G2019S mice). The mice included an equal number of male and female individuals, with body weights ranging from 16-20 g and ages between 15-17 weeks.
(2) Grouping and administration: The mice were randomly divided into 5 experimental groups based on their body weights. Each group consisted of 8 animals, with 4 males and 4 females. The specific administration for each experimental group is detailed in the following Table 1. Group G1 served as the vehicle control group. For group G2 to group G5, compound 527 was administered at doses of 1 mg/kg, 3 mg/kg, 10 mg/kg, and 30 mg/kg, respectively.
(3) Intracerebral LRRK2 activity assay: One hour after administration, the animals were euthanized using CO2. The brain tissues were collected, rapidly frozen in liquid nitrogen, and then cryopreserved at −80 C until subsequent experiments. The brain tissues were homogenized in an RIPA buffer containing cOmplete™ protease inhibitor mixture (Roche, 04693124001) and phosphatase inhibitor mixture 2 (sigma, R^0278). Protein quantification was performed using the BCA method. The phosphorylation level of LRRK2 at pS935 site (primary antibody Anti-LRRK2 (phospho S935) antibody, abcam, ab133450), and the total LRRK2 level (primary antibody Anti-LRRK2 antibody, Abcam, ab33518) were detected by Western blot method. The activity level of LRRK2 in the brain was represented by the phosphorylation level at S935 site of LRRK2, i.e., the ratio of pS935-LRRK2 to total LRRK2 (pS935-LRRK2/LRRK2).

[6] = LRRK2-G2019S mice, oral gavage, single dose, brain collected 1 h after administration

Sequence of LRRK2 G2019S (Q5S007 whole entry G2019S): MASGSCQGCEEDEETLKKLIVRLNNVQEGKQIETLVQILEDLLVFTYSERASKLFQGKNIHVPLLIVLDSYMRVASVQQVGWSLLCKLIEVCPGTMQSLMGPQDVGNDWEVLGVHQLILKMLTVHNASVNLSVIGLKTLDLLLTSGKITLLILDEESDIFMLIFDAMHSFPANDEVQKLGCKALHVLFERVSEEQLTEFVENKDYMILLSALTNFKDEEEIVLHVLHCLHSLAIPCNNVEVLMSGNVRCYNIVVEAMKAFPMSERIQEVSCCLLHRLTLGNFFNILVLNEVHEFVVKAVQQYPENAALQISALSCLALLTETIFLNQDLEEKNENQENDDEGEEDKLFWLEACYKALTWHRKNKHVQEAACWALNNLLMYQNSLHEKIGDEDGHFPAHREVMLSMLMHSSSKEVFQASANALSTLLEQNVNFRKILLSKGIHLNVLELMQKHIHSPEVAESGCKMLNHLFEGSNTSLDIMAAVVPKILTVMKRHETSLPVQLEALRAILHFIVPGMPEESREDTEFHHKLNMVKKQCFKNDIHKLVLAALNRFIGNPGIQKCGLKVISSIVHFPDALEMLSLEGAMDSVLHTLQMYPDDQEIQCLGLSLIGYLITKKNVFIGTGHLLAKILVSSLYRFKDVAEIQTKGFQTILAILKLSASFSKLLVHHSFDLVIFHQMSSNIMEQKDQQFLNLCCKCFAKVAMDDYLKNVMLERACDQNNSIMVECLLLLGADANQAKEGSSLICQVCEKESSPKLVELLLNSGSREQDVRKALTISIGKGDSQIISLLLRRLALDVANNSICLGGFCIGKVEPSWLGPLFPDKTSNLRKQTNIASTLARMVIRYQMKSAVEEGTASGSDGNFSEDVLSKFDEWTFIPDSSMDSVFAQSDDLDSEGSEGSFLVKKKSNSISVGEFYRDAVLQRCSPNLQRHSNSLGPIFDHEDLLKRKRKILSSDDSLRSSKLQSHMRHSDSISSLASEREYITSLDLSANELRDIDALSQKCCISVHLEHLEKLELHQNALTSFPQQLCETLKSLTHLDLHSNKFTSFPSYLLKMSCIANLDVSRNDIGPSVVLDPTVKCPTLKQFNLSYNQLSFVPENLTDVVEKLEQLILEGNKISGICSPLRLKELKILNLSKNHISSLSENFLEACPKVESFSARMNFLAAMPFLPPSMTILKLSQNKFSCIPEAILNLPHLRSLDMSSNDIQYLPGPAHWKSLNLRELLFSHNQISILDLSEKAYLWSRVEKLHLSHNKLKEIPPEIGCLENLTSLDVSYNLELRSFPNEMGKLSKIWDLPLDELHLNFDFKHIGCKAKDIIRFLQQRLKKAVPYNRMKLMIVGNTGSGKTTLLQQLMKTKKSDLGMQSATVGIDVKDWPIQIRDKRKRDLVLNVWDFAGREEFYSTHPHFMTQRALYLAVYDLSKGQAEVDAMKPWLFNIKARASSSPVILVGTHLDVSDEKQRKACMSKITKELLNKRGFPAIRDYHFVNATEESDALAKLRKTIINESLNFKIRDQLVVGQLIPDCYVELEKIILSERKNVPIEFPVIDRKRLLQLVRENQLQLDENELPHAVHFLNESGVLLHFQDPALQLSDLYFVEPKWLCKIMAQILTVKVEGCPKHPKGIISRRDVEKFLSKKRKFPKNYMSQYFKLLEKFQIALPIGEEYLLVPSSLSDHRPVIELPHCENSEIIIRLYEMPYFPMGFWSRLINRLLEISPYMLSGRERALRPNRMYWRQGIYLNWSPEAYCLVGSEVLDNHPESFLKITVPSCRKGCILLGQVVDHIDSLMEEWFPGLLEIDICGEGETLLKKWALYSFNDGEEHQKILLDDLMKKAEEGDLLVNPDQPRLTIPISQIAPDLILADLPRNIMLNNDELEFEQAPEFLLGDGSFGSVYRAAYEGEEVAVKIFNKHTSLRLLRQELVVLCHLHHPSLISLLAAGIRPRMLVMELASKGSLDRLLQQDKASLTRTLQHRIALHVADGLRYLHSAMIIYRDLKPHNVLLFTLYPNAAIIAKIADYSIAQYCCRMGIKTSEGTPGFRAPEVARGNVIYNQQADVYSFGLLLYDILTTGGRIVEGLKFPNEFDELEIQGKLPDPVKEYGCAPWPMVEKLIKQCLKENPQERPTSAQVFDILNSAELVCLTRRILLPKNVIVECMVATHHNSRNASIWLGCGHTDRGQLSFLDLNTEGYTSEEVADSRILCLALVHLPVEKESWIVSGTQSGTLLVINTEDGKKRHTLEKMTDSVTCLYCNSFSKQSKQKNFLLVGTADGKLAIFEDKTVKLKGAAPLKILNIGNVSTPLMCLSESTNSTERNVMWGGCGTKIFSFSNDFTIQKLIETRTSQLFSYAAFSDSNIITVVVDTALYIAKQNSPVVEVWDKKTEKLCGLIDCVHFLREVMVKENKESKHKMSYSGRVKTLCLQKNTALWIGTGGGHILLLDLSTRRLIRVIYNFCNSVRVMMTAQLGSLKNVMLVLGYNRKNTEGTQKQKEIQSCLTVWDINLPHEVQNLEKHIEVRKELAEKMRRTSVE
Sequence of LRRK2-R1441C (Q5S007 whole entry R1441C): as the sequence (Q5S007 whole entry G2019S) above, with R1441C, S2019G counted along it
Sequence of LRRK2 (Homo sapiens (Human), UniProt Q5S007) (Q5S007 whole entry): as the sequence (Q5S007 whole entry G2019S) above, with S2019G counted along it
Sequence of LRRK2-2019S (Q5S007 whole entry G2019S): as the sequence (Q5S007 whole entry G2019S) above

`C[C@@H]1CN(c2cc(-c3n[nH]c4ccnc(NC5(C)CC5)c34)ncn2)C[C@H](C)O1` [Compound 391] showed a pIC50 [1] of 8.02.

With `C[C@@H]1C[C@H](Nc2nccc3[nH]nc(-c4cc(N5C[C@@H](C)O[C@@H](C)C5)ncn4)c23)C[C@H](C)O1` [Compound 407, 3-(6-((2S,6R)-2,6-dimethylmorpholinyl)pyrimidin-4-yl)-N-((2R,4R,6S)-2,6-dimethyltetrahydro-2H-pyran-4-yl)-1H-pyrazolo[4,3-c]pyridine-4-amine] the pIC50 [1] was 8.66.

Compound `C[C@@H]1C[C@H](Nc2nccc3[nH]nc(-c4cc(N5C[C@@H]6C[C@H]5CO6)ncn4)c23)C[C@H](C)O1` [Compound 424] has a pIC50 [1] of 8.43.

Work on `C[C@@H]1C[C@H](Nc2nccc3[nH]nc(-c4cc(N5C[C@H]6C[C@@H]5CO6)ncn4)c23)C[C@H](C)O1` [Compound 425] yielded a pIC50 [1] of 8.72.

For `C[C@@H]1C[C@@H](Nc2nccc3[nH]nc(-c4cc(N5C[C@H]6C[C@@H]5CO6)ncn4)c23)C[C@H](C)O1` [Compound 440], the pIC50 [1] was 7.44.

Work on `C[C@@H]1CN(c2cc(-c3n[nH]c4ccnc(NCC(F)(F)F)c34)ncn2)C[C@H](C)O1` [Compound 447] yielded a pIC50 [2] of 6.53, a pIC50 [3] of 6.61 and a pIC50 [4] of 7.01. For the same compound, the pIC50 [1] was 8.55.

`FC(F)(F)CNc1nccc2[nH]nc(-c3cc(N4C[C@@H]5C[C@H]4CO5)ncn3)c12` [Compound 486] gave a pIC50 [1] of 8.51.

`FC(F)(F)CNc1nccc2[nH]nc(-c3cc(N4C[C@H]5C[C@@H]4CO5)ncn3)c12` [Compound 487] was tested, and the pIC50 [1] was 8.62.

`CC(C)n1cc(-c2n[nH]c3ccnc(NCC(F)(F)F)c23)cn1` [Compound 515] gave a pIC50 [1] of 7.56.

`FC(F)(F)CNc1nccc2[nH]nc(-c3cc(N4C5CCC4COC5)ncn3)c12` [Compound 520] showed a pIC50 [1] of 8.32.

With `N#CC1(c2cc(-c3n[nH]c4ccnc(NCC(F)(F)F)c34)ncn2)CCC1` [Compound 523, 1-(6-(4-((2,2,2-trifluoroethyl)amino)-1H-pyrazolo[4,3-c]pyridin-3-yl)pyrimidin-4-yl)cyclobutane-1-carbonitrile] the pIC50 [1] was 8.62.

With `O[C@@H]1C[C@H](O)CN(c2cc(-c3n[nH]c4ccnc(NCC(F)(F)F)c34)ncn2)C1` [Compound 526, (3S,5R)-1-(6-(4-((2,2,2-trifluoroethyl)amino)-1H-pyrazolo[4,3-c]pyridin-3-yl)pyrimidin-4-yl)piperidine-3,5-diol] the pIC50 [1] was 8.29.

Work on `C[C@@H]1CN(c2cc(-c3n[nH]c4ccnc(N[C@H](C)C(F)(F)F)c34)ncn2)C[C@H](C)O1` [Compound 527] yielded a pIC50 [2] of 7.34, a pIC50 [3] of 7.61 and a pIC50 [4] of 7.79. The pIC50 [1] was 8.92, the “inhibition of the phosphorylation of LRRK2 in the brain tissues” value ([5]; 30 mg/kg oral gavage, 1 h, LRRK2-G2019S mice, stated as the definition of the maximum effective dose) was 60% and the “effective dose for inhibiting the phosphorylation of LRRK2 in the brain tissues” value [5, 6] was 10 mg/kg. For the same compound, the “maximum effective dose (defined as 60% inhibition of the phosphorylation of LRRK2)” value [5, 6] was 30 mg/kg, the “human equivalent dose corresponding to the effective dose” value ([5]; calculated for a body weight of 70 kg, from 10 mg/kg in mice) was 57 mg and the “human equivalent dose corresponding to the maximum effective dose” value ([5]; calculated for a body weight of 70 kg, from 30 mg/kg in mice) was 171 mg.

`C[C@@H]1CN(c2cc(-c3n[nH]c4ccnc(N[C@@H](C)C(F)(F)F)c34)ncn2)C[C@H](C)O1` [Compound 528] showed a pIC50 [1] of 8.80.

Work on `C[C@H]1CN(c2cc(-c3n[nH]c4ccnc(N[C@H](C)C(F)(F)F)c34)ncn2)C[C@H](C)O1` [Compound 561] yielded a pIC50 [1] of 8.89.

With `FC(F)(F)CNc1nccc2[nH]nc(-c3ccccn3)c12` [Control compound, reference compound] the pIC50 [1] was 7.92.
